Like-named read-outs stand apart in the source and are kept apart here.
Experiment: Phase 1 multiple-dose study, plasma PK
Format: in vivo, human
Settings: both sexes, human, plasma, oral; for Tmax: read-out: Plasma Tmax, median (minimum, maximum); for AUC: read-out: Plasma AUCtau, geometric mean (geometric CV %); for Cmax: read-out: Plasma Cmax, geometric mean (geometric CV %); for AUC(0-inf): read-out: plasma geometric mean AUC0-inf
Protocol: Subjects were enrolled to 1 of 2 dosage regimens. Subject enrollment was stratified by sex to ensure approximate sex balance in each cohort.
(§1) Morning doses were administered following a standard light breakfast (e.g., milk and cereal, toast, and fruit) on all days. TID dosing (three times a day) was approximately 8 hours apart. Subjects fasted from midnight onwards, until the morning breakfast each day. There was no fluid restriction during the study, but subjects should not have consumed excessive amounts of fluid on any day.
The Phase 1, open-label, multiple-dose study of Example 1 was conducted for Cohorts 1-3, 4A, and 4B.
as §1, with “hours apart, and BID dosing (two times a day) was 12 hours” for “hours”, “were” for “should”, “to consume” for “have consumed”

[1] = 6 mg, Day 10, Cohort 1 (6 mg TID)
[2] = 12 mg, Day 8, Cohort 2 (12 mg TID)
[3] = 12 mg, Day 8, Cohort 3 (12 mg BID)
[4] = 12 mg, Day 9, Cohort 2 (12 mg TID)
[5] = 12 mg, Day 9, Cohort 3 (12 mg BID)
[6] = 12 mg, Day 10, Cohort 2 (12 mg TID)
[7] = 12 mg, Day 10, Cohort 3 (12 mg BID)
[8] = 15 mg, Day 8, Cohort 4A (15 mg BID)
[9] = 15 mg, Day 9, Cohort 4A (15 mg BID)
[10] = 15 mg, Day 10, Cohort 4A (15 mg BID)
[11] = 18 mg, Day 8, Cohort 4B (18 mg BID)
[12] = 18 mg, Day 9, Cohort 4B (18 mg BID)
[13] = 18 mg, Day 10, Cohort 4B (18 mg BID)

With `C[C@H]1CN2CCNCc3ccc(C(=O)NCC(F)F)c1c32` [Compound 1, (R)—N-(2,2-difluoroethyl)-7-methyl-1,2,3,4,6,7-hexahydro-[1,4]diazepino[6,7,1-hi]indole-8-carboxamide] the half-life (6 mg, Day 9, Cohort 1 (6 mg TID), read-out: Plasma T1/2, mean (SD) (converted)) was 3.85 h, the Tmax (6 mg, Day 9, Cohort 1 (6 mg TID)) was 0.94 h and the AUC [1] was 82.6 ng·h/mL. It also gave a Cmax [1] of 16.5 ng/mL, a half-life (6 mg, Day 10, Cohort 1 (6 mg TID), read-out: Plasma T1/2, mean (SD) (converted)) of 4.63 h and a Tmax [1] of 1.03 h. For the same compound, the AUC [2] was 190 ng·h/mL, the Cmax [2] was 36.7 ng/mL and the half-life (12 mg, Day 8, Cohort 2 (12 mg TID), read-out: Plasma T1/2, mean (SD) (converted)) was 4.74 h. It also gave a Tmax [2] of 1.01 h, an AUC [3] of 156 ng·h/mL and a Cmax [3] of 30.3 ng/mL. For the same compound, the half-life (12 mg, Day 8, Cohort 3 (12 mg BID), read-out: Plasma T1/2, mean (SD) (converted)) was 4.32 h, the Tmax [3] was 1.01 h and the AUC [4] was 194 ng·h/mL. For the same compound, the Cmax [4] was 44.5 ng/mL, the half-life (12 mg, Day 9, Cohort 2 (12 mg TID), read-out: Plasma T1/2, mean (SD) (converted)) was 4.79 h and the Tmax [4] was 0.92 h. For the same compound, the AUC [5] was 163 ng·h/mL, the Cmax [5] was 37.2 ng/mL and the half-life (12 mg, Day 9, Cohort 3 (12 mg BID), read-out: Plasma T1/2, mean (SD) (converted)) was 4.58 h. For the same compound, the Tmax [5] was 0.93 h, the AUC [6] was 196 ng·h/mL and the Cmax [6] was 39.8 ng/mL. For the same compound, the half-life (12 mg, Day 10, Cohort 2 (12 mg TID), read-out: Plasma T1/2, mean (SD) (converted)) was 4.08 h, the Tmax [6] was 1.02 h and the AUC [7] was 154 ng·h/mL. For the same compound, the Cmax [7] was 31.3 ng/mL, the half-life (12 mg, Day 10, Cohort 3 (12 mg BID), read-out: Plasma T1/2, mean (SD) (converted)) was 3.54 h and the Tmax [7] was 1 h. The AUC [8] was 194 ng·h/mL, the Cmax [8] was 44.8 ng/mL and the half-life (15 mg, Day 8, Cohort 4A (15 mg BID), read-out: Plasma T1/2, mean (SD) (converted)) was 5.36 h. For the same compound, the Tmax [8] was 0.55 h, the AUC [9] was 208 ng·h/mL and the Cmax [9] was 50.2 ng/mL. For the same compound, the half-life (15 mg, Day 9, Cohort 4A (15 mg BID), read-out: Plasma T1/2, mean (SD) (converted)) was 5.51 h, the Tmax [9] was 0.57 h and the AUC [10] was 193 ng·h/mL. It also gave a Cmax [10] of 40.9 ng/mL, a half-life (15 mg, Day 10, Cohort 4A (15 mg BID), read-out: Plasma T1/2, mean (SD) (converted)) of 3.72 h and a Tmax [10] of 1.06 h. The AUC [11] was 230 ng·h/mL, the Cmax [11] was 43.2 ng/mL and the half-life (18 mg, Day 8, Cohort 4B (18 mg BID), read-out: Plasma T1/2, mean (SD) (converted)) was 5.51 h. It also gave a Tmax [11] of 0.99 h, an AUC [12] of 242 ng·h/mL and a Cmax [12] of 47.7 ng/mL. The half-life (18 mg, Day 9, Cohort 4B (18 mg BID), read-out: Plasma T1/2, mean (SD) (converted)) was 4.3 h, the Tmax [12] was 0.5 h and the AUC [13] was 224 ng·h/mL. For the same compound, the Cmax [13] was 53 ng/mL, the half-life (18 mg, Day 10, Cohort 4B (18 mg BID), read-out: Plasma T1/2, mean (SD) (converted)) was 3.51 h and the Tmax [13] was 1 h. It also gave a half-life (steady state, read-out: half-life at steady state (converted)) of ~5 h, an AUC(0-inf) (Day 1, single 3 mg dose, Cohort 1) of 21.3 ng·h/mL and an AUC(0-inf) (Day 1, single 6 mg dose, Cohorts 2, 3, 4A, 4B) of 36.5 to 51.9 ng·h/mL.

Source: patent US20240216392A1, “METHODS OF TREAMENT” (Arena Pharmaceuticals, Inc., priority 2022, published 2024)
